# Measured values as given in patent publication US10308615B2, “Heterocyclic compounds as inhibitors of Vanin-1 enzyme” (Pfizer Inc., priority 2015, dated 2019).
# Tests used:
# Type in all cases: biochemical
# human vanin-1 [1] = target: T1, human vanin-1 (Homo sapiens (Human), UniProt O95497); test: Human Vanin-1 Enzyme Assay 1; conditions: 25 pM human vanin-1, 50 uM pantetheine 7-amino-4-trifluoromethylcoumarin, 30 min preincubation, 60 min
# Protocol: Human Vanin-1 Enzyme Assay 1.
# (§1) The in vitro assay measures enzymatic cleavage of the fluorescently-labeled vanin substrate, pantetheine 7-amino-4-trifluoromethylcoumarin, by human vanin-1.
# (§2) The vanin-1 protein was prepared in-house from a construct expressing the extracellular domain of human vanin-1 (GenBank ID NM_004666) preceded N-terminally by the honey bee melittin signal peptide, a GSG linker sequence, a His6X tag and a FLAG tag. The secreted, soluble enzyme was purified from the conditioned medium from a CHO cell line stably expressing the resulting protein. Enzyme purification was performed through sequential Ni NTA and size-exclusion chromatography steps.
# The test inhibitors were solubilized in DMSO to a stock concentration of 30 mM. On the day of the assay, dose response plates were prepared by diluting the inhibitors in DMSO at compound concentration 200-fold the final in-assay concentration. Intermediate concentrations were prepared by diluting in DMSO in a four-fold series for a total of 11 data points.
# To prepare a working solution of human vanin-1, the enzyme was diluted to 33.3 pM in the assay buffer consisting of 50 mM Tris-HCl pH=8.0, 50 mM KCl, 0.005% Brij-35 and […] cysteamine. To begin the assay 100 nL was transferred from the compound plate to the assay plate. Next, 15 μL of the vanin-1 working solution were transferred to the assay plate. The inhibitor and enzyme were incubated at room temperature for 30 minutes. The enzyme reaction was then initiated by the addition of 5 μL of 200 μM pantetheine 7-amino-4-trifluoromethylcoumarin prepared in assay buffer. The final concentrations in the assay were 25 pM human vanin-1 and 50 uM substrate. The final concentration of DMSO was 0.5%. The assay plates were incubated for 60 minutes and before they were read on a Perkin Elmer EnVision Model 2103 using a 405 nm excitation wavelength and a 510 nm emission wavelength for detection.
# human vanin-1 [2] = target: T1, human vanin-1; test: Human Vanin-1 Enzyme Assay 2; conditions: 1 nM human vanin-1, 10 uM substrate, 45 min
# Protocol: Human Vanin-1 Enzyme Assay 2.
# as §1, §2
# (§3) On the day of the assay, dose response plates were prepared by diluting the inhibitors in DMSO at compound concentration 100-fold the final in-assay concentration. Concentration series were prepared by serially diluting in DMSO in a half-log series for a total of 11 data points. Intermediate compound plates containing compound in 10% DMSO were then created by diluting the compounds 10-fold in assay buffer consisting of 50 mM Tris-HCl pH=8.0, 50 mM KCl, 0.005% Brij-35 and 1.5 mM cysteamine. To begin the assay 3 μL were transferred from the intermediate compound plate to the assay plate.
# A working solution of human vanin-1 was prepared by diluting the enzyme stock to 1.25 nM in assay buffer. Next, 24 μL of the vanin-1 working solution were transferred to the assay plate. The enzyme reaction was then initiated by the addition of 3 μL of 100 μM pantetheine 7-amino-4-trifluoromethylcoumarin prepared in assay buffer. The final concentrations in the assay were 1 nM human vanin-1 and 10 uM substrate. The final concentration of DMSO was 1%. The assay plates were incubated for 45 minutes and before they were read on a Spectramax M5 using a 405 nm excitation wavelength and a 505 nm emission wavelength for detection.
# human vanin-1 [3] = target: T1, human vanin-1; test: Human Vanin-1 Enzyme Assay 3; conditions: 2 nM human vanin-1, 10 uM substrate, 15 min
# Protocol: Human Vanin-1 Enzyme Assay 3.
# as §1, §2
# as §3, with “two-fold” for “half-log”
# A working solution of human vanin-1 was prepared by diluting the enzyme stock to 2.5 nM in assay buffer. Next, 24 μL of the vanin-1 working solution were transferred to the assay plate. The enzyme reaction was then initiated by the addition of 3 μL of 100 μM pantetheine 7-amino-4-trifluoromethylcoumarin prepared in 5 uM acetic acid. The final concentrations in the assay were 2 nM human vanin-1 and 10 uM substrate. The final concentration of DMSO was 1%. The assay plates were incubated at room temperature for 15 minutes and before they were read on a Tecan Safire using a 405 nm excitation wavelength and a 505 nm emission wavelength for detection.
# T1 sequence (O95497 22-491): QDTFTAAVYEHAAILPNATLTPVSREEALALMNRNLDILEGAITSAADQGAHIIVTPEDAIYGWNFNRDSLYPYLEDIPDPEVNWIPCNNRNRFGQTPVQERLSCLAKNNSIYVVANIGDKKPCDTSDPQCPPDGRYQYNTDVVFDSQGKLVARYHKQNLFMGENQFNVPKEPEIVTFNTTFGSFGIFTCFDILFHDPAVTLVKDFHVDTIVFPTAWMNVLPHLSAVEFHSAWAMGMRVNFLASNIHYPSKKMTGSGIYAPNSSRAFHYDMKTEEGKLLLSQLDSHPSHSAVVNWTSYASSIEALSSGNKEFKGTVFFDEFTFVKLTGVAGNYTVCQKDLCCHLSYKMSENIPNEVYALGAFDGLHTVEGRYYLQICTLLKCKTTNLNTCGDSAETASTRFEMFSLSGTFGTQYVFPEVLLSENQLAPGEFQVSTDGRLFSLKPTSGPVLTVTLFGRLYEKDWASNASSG
SMILES,IC50 (human vanin-1 [1]),IC50 (human vanin-1 [2]),IC50 (human vanin-1 [3])
"CC(Nc1ncc(C(=O)c2cccc(C#N)c2)cn1)c1ccc(C(N)=O)cc1 (single isomer, unassigned; (+)) [Example 10, (+)-4-(1-{[5-(3-cyanobenzoyl)pyrimidin-2-yl]amino}ethyl)benzamide]",> 20000 nM,> 10000 nM,–
"CC(Nc1ncc(C(=O)c2cccc(C#N)c2)cn1)c1ccc(C(N)=O)cc1 (single isomer, unassigned; (-)) [Example 9, (−)-4-(1-{[5-(3-cyanobenzoyl)pyrimidin-2-yl]amino}ethyl)benzamide]",10.3 nM,41.3 nM,–
"N#Cc1cccc(C(=O)c2cnc(NCc3cnc(N)nc3)nc2)c1 [Example 4, 3-[(2-{[(2-aminopyrimidin-5-yl)methyl]amino}pyrimidin-5-yl)carbonyl]benzonitrile]",22.4 nM,21 nM,–
"N#Cc1cccc(C(=O)c2cnc(NC3(c4cnccn4)CC3)nc2)c1 [Example 5, 3-[(2-{[1-(pyrazin-2-yl)cyclopropyl]amino}pyrimidin-5-yl)carbonyl]benzonitrile]",3.4 nM,9.8 nM,–
"N#Cc1cccc(C(=O)c2cnc(NCc3ccc(N)nc3)nc2)c1 [Example 6, 3-[(2-{[(6-aminopyridin-3-yl)methyl]amino}pyrimidin-5-yl)carbonyl]benzonitrile]",37.3 nM,24.8 nM,–
"CC(Nc1ncc(C(=O)c2cccc(C#N)c2)cn1)c1cccnc1 (stereo not drawn) [Example 7, 3-[(2-{[1-(pyridin-3-yl)ethyl]amino}pyrimidin-5-yl)carbonyl]benzonitrile]",–,3.9 nM,–
"CC(Nc1ncc(C(=O)c2cccc(C#N)c2)cn1)c1ccc(C(N)=O)cc1 (stereo not drawn) [Example 8, 4-(1-{[5-(3-cyanobenzoyl)pyrimidin-2-yl]amino}ethyl)benzamide]",–,91.4 nM,–
"O=C(c1cnc(NC2(c3cncnc3)CC2)nc1)c1cccc(C(F)(F)F)c1 [Example 16, (2-{[1-(pyrimidin-5-yl)cyclopropyl]amino}pyrimidin-5-yl)[3-(trifluoromethyl)phenyl]methanone]",1.7 nM,2.6 nM,–
"CS(=O)(=O)c1cccc(C(=O)c2cnc(NC3(c4cncnc4)CC3)nc2)c1 [Example 17, [3-(methylsulfonyl)phenyl](2-{[1-(pyrimidin-5-yl)cyclopropyl]amino}pyrimidin-5-yl)methanone]",0.8 nM,1.8 nM,–
"COc1cccc(C(=O)c2cnc(NC3(c4cncnc4)CC3)nc2)c1 [Example 18, (3-methoxyphenyl)(2-{[1-(pyrimidin-5-yl)cyclopropyl]amino}pyrimidin-5-yl)methanone]",26.5 nM,12.3 nM,–
"CS(=O)(=O)c1cccc(C(=O)c2ccc(NCc3cncnc3)nc2)c1 [Example 19, [3-(methylsulfonyl)phenyl]{6-[(pyrimidin-5-ylmethyl)amino]pyridin-3-yl}methanone]",1440 nM,28.8 nM,–
"CS(=O)(=O)c1cccc(C(=O)c2cnc(NCc3cncnc3)nc2)c1 [Example 20, [3-(methylsulfonyl)phenyl]{2-[(pyrimidin-5-ylmethyl)amino]pyrimidin-5-yl}methanone]",9.4 nM,17 nM,–

# The next lines start with the values.
IC50 (human vanin-1 [1]),IC50 (human vanin-1 [2]),IC50 (human vanin-1 [3]),SMILES
–,63 nM,–,"CS(=O)(=O)c1cccc(C(=O)c2cnc(NCc3cccnn3)nc2)c1 [Example 21, [3-(methylsulfonyl)phenyl]{2-[(pyridazin-3-ylmethyl)amino]pyrimidin-5-yl}methanone]"
188 nM,86.2 nM,–,"N#Cc1cccc(C(=O)c2cnc(NCc3cc[nH]c(=O)c3)nc2)c1 [Example 72, 3-[(2-{[(2-oxo-1,2-dihydropyridin-4-yl)methyl]amino}pyrimidin-5-yl)carbonyl] benzonitrile]"
3950 nM,–,36.2 nM,"O=C(c1cnc(NCc2ccc(F)cc2)nc1)c1cc(F)cc(C(F)(F)F)c1 [Example 127, {2-[(4-fluorobenzyl)amino]pyrimidin-5-yl}[3-fluoro-5-(trifluoromethyl)phenyl]methanone]"
9.9 nM,12.4 nM,–,"N#Cc1cccc(C(=O)c2cnc(NC3(c4ccccc4)CCC3)nc2)c1 [Example 129, 3-({2-[(1-phenylcyclobutyl)amino]pyrimidin-5-yl}carbonyl) benzonitrile]"
482 nM,289 nM,–,"N#Cc1cc(F)cc(C(=O)c2cnc(NCc3cncnc3)nc2)c1 [Example 130, 3-fluoro-5-({2-[(pyrimidin-5-ylmethyl)amino]pyrimidin-5-yl}carbonyl) benzonitrile]"
541 nM,370 nM,–,"N#Cc1ccc(F)c(C(=O)c2cnc(NCc3cncnc3)nc2)c1 [Example 131, 4-fluoro-3-({2-[(pyrimidin-5-ylmethyl)amino]pyrimidin-5-yl}carbonyl) benzonitrile]"
126 nM,98.2 nM,–,"Cc1ccc(C(=O)c2cnc(NCc3cncnc3)nc2)cc1C#N [Example 132, 2-methyl-5-({2-[(pyrimidin-5-ylmethyl)amino]pyrimidin-5-yl}carbonyl) benzonitrile]"
–,15.5 nM,–,"CC(Nc1ncc(C(=O)c2cccc(C#N)c2)cn1)c1cncnc1 (stereo not drawn) [Example 133, 3-[(2-{[1-(pyrimidin-5-yl)ethyl]amino}pyrimidin-5-yl)carbonyl] benzonitrile]"
259 nM,100 nM,–,"N#Cc1cc(C(=O)c2cnc(NCc3cncnc3)nc2)ccc1Cl [Example 134, 2-chloro-5-({2-[(pyrimidin-5-ylmethyl)amino]pyrimidin-5-yl}carbonyl) benzonitrile]"
48.4 nM,68.3 nM,–,"N#Cc1cc(C(=O)c2cnc(NCc3cncnc3)nc2)ccc1F [Example 135, 2-fluoro-5-({2-[(pyrimidin-5-ylmethyl)amino]pyrimidin-5-yl}carbonyl) benzonitrile]"
–,31.5 nM,–,"O=C(c1ccc(NCc2cncnc2)nc1)c1cccc(C(F)(F)F)c1 [Example 139, {6-[(pyrimidin-5-ylmethyl)amino]pyridin-3-yl}[3-(trifluoromethyl)phenyl]methanone]"
–,280 nM,–,"O=C(c1cnc(NCc2cncnc2)nc1)c1ccnc(C(F)(F)F)c1 [Example 141, {2-[(pyrimidin-5-ylmethyl)amino]pyrimidin-5-yl}[2-(trifluoromethyl)pyridin-4-yl]methanone]"
> 20000 nM,–,> 1110 nM,"O=C(c1cnc(OCc2ccccc2)nc1)c1cccc(C(F)(F)F)c1 [Example 155, [2-(benzyloxy)pyrimidin-5-yl][3-(trifluoromethyl)phenyl]methanone]"
> 20000 nM,–,> 1130 nM,"O=C(c1cnc(OCc2ccc(F)cc2F)nc1)c1cccc(C(F)(F)F)c1 [Example 156, {2-[(2,4-difluorobenzyl)oxy]pyrimidin-5-yl}[3-(trifluoromethyl)phenyl]methanone]"
11900 nM,–,6900 nM,"CCN1CCCC1CNc1ncc(C(=O)c2cccc(C(F)(F)F)c2)cn1 (stereo not drawn) [Example 165, (2-{[(1-ethylpyrrolidin-2-yl)methyl]amino}pyrimidin-5-yl)[3-(trifluoromethyl)phenyl]methanone]"
